This note sets out measurements from patent publication US10206937B2, “Boronic acid derivatives and therapeutic uses thereof” (Qpex Biopharma, Inc., priority 2014, dated 2019).

Bounds are passed on as bounds.

Assay [1] deals with T1, NDM-1 (Klebsiella pneumoniae, UniProt C7C422). Put plainly: Inhibition of purified class B carbapenemase NDM-1 (Ki, imipenem substrate). It is filed as biochemical. The note with it: NDM-1, substrate imipenem; read-out: Ki NDM-1, Imipenem.
The target of another assay is T2, VIM-1 (Pseudomonas aeruginosa, UniProt A0A0F7KYQ8).
T2 construct: made in house; host or cells: ECM6711 strain carrying pUCP24-VIM-1 plasmid; culture supernatant used unpurified
Put plainly: biochemical. The note with it: cleavage of nitrocefin (200 uM) by VIM-1 supernatant.

In assay [2] the target is T1, NDM-1. Put plainly: biochemical. The conditions noted are these: cleavage of imipenem (100 uM) by NDM-1; read-out: Ki, Imipenem.
The target in assay [3] is purified class A, C and D enzymes (Enterobacter cloacae, UniProt P05364). It is filed as biochemical. The conditions noted are these: purified P99/AmpC of ECL; nitrocefin reporter substrate.
Sequence of purified class A, C and D enzymes (Enterobacter cloacae, UniProt P05364) (P05364 21-381): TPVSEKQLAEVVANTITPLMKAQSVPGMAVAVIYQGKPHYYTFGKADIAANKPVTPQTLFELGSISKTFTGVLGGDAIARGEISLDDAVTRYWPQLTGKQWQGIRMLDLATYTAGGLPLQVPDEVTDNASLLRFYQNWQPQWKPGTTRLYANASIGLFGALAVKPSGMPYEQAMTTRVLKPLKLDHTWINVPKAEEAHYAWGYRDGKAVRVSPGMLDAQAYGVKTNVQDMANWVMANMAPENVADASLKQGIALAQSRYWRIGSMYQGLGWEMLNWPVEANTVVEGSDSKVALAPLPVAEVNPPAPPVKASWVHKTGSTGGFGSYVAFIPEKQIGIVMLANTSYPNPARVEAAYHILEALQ
The target in assay [4] is T3, purified class A, C and D enzymes (UniProt Q6XEC0).
T3 construct: rows headed: Ki (OXA-48, NCF); other: purified OXA-48; nitrocefin reporter substrate
The class given is biochemical. The conditions noted are these: read-out: Ki (OXA-48, NCF); purified OXA-48; nitrocefin reporter substrate.

The target of assay [5] is T4, purified class A, C and D enzymes (UniProt Q9F663).
T4 construct: rows headed: Ki (KPC-2, NCF); other: purified KPC-2; nitrocefin reporter substrate
It is filed as biochemical. The conditions noted are these: read-out: Ki (KPC-2, NCF); purified KPC-2; nitrocefin reporter substrate.

Assay [6] deals with T5, purified class A, C and D enzymes (UniProt P0AD64, L31Q/G234S/E235K, species not given).
T5 construct: Ki (SHV-12, NCF); other: purified SHV-12; nitrocefin reporter substrate
T5 sequence (P0AD64 1-286 L31Q/G234S/E235K): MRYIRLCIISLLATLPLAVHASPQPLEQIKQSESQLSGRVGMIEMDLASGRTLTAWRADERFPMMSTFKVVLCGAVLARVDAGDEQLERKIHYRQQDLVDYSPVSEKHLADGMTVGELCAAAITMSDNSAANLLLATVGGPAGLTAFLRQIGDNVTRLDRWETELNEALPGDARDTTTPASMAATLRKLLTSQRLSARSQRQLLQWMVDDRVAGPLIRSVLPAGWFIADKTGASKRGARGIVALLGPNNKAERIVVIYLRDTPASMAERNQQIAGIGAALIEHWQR
It is filed as biochemical. The note with it: read-out: Ki (SHV-12, NCF); purified SHV-12; nitrocefin reporter substrate.

For assay [7], the target named is purified class A, C and D enzymes (Escherichia coli, UniProt Q9L5C7). It is filed as biochemical. The note with it: purified CTX-M-14; nitrocefin reporter substrate.
Sequence of purified class A, C and D enzymes (Escherichia coli, UniProt Q9L5C7) (Q9L5C7 entry or part of it): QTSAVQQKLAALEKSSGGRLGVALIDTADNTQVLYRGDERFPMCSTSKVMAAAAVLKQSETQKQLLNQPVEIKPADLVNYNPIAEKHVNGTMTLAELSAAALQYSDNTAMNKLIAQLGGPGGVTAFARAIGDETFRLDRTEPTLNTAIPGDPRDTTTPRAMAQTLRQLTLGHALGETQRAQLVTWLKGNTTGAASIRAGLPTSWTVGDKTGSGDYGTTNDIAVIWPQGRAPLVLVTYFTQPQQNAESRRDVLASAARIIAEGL

T1 sequence (C7C422 29-270, looked up, species assumed): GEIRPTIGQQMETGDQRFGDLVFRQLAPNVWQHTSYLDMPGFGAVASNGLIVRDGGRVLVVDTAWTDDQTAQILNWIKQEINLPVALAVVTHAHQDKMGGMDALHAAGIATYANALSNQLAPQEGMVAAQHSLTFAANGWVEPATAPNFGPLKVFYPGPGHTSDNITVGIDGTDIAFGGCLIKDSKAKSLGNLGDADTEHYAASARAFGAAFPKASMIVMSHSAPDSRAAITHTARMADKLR

As usually defined, the Ki is the equilibrium dissociation constant of an inhibitor or competing ligand from its target. One may read the IC50 as the midpoint of a concentration-inhibition curve. Read a low IC50 as inhibition by little substance. For `COc1ccc2c(c1C(=O)O)OB(O)[C@@H](Sc1nncn1CCCC(=O)O)C2` [Compound 41, (R)-3-(4-(3-carboxypropyl)-4H-1,2,4-triazol-3-ylthio)-2-hydroxy-7-methoxy-3,4-dihydro-2H-benzo[e][1,2]oxaborinine-8-carboxylic acid], the Ki was less than 10 nM at NDM-1 [1]; less than 10 nM on NDM-1 [2]; less than 100 nM in assay [4]; less than 100 nM in assay [5]; less than 100 nM in assay [6]. The molecule also had an IC50 at VIM-1 of less than 1000 nM. Further, in assay [3], the “Ki (P99/AmpC of ECL, NCF)” value is given as “X (Less than 0.1 μM)”. Besides, in assay [7], the “Ki (CTX-M-14, NCF)” value is on record as “X (Less than 0.1 μM)”.

In the case of `COc1c(Cl)cc2c(c1C(=O)O)OB(O)[C@@H](Sc1nnc(N)s1)C2` [Compound 42, (R)-3-(5-amino-1,3,4-thiadiazol-2-ylthio)-6-chloro-2-hydroxy-7-methoxy-3,4-dihydro-2H-benzo[e][1,2]oxaborinine-8-carboxylic acid], the Ki is less than 10 nM on NDM-1 [1]; less than 10 nM at NDM-1 [2]; less than 100 nM in assay [4]; 100 to 1000 nM in assay [5]; less than 100 nM in assay [6]. Further, the IC50 at VIM-1 was less than 1000 nM. Besides, the “Ki (P99/AmpC of ECL, NCF)” value in assay [3] is given as “Y (0.1 μM to 1 μM)”. The “Ki (CTX-M-14, NCF)” value in assay [7] was “X (Less than 0.1 μM)”.

For the molecule `COc1ccc2c(c1C(=O)O)OB(O)[C@@H](SCCc1nnc(N)s1)C2` [Compound 43, (R)-3-(2-(5-amino-1,3,4-thiadiazol-2-yl)ethylthio)-2-hydroxy-7-methoxy-3,4-dihydro-2H-benzo[e][1,2]oxaborinine-8-carboxylic acid], the Ki was less than 10 nM on NDM-1 [1]; less than 10 nM at NDM-1 [2]; less than 100 nM in assay [4]; less than 100 nM in assay [5]; less than 100 nM in assay [6]. The IC50 on VIM-1 is less than 1000 nM. For the same molecule, the “Ki (P99/AmpC of ECL, NCF)” value in assay [3] was “X (Less than 0.1 μM)”. For the same molecule, the “Ki (CTX-M-14, NCF)” value in assay [7] was “X (Less than 0.1 μM)”.

For the molecule `Nc1nnc(S[C@H]2Cc3ccc(O)c(C(=O)O)c3OB2O)s1` [Compound 44, (R)-3-(5-amino-1,3,4-thiadiazol-2-ylthio)-2,7-dihydroxy-3,4-dihydro-2H-benzo[e][1,2]oxaborinine-8-carboxylic acid], the Ki at NDM-1 [1] is less than 10 nM; on NDM-1 [2] it was less than 10 nM; in assay [4] it was less than 100 nM; in assay [5], less than 100 nM; in assay [6], less than 100 nM. The same molecule returned an IC50 against VIM-1 of less than 1000 nM. Moreover, in assay [3], the “Ki (P99/AmpC of ECL, NCF)” value is listed as “X (Less than 0.1 μM)”. The “Ki (CTX-M-14, NCF)” value in assay [7] was “X (Less than 0.1 μM)”.

Consider `O=C(O)c1c(F)ccc2c1OB(O)[C@@H](Sc1nccs1)C2` [Compound 45, (R)-7-fluoro-2-hydroxy-3-(thiazol-2-ylthio)-3,4-dihydro-2H-benzo[e][1,2]oxaborinine-8-carboxylic acid], for which the Ki at NDM-1 [1] is 10 to 100 nM; at NDM-1 [2], 10 to 100 nM; in assay [4], less than 100 nM; in assay [5], 100 to 1000 nM; in assay [6], less than 100 nM. For the same molecule, at VIM-1, the IC50 is not below 1000 nM. In addition, in assay [3], the “Ki (P99/AmpC of ECL, NCF)” value is given as “Z (Greater than 1 μM)”. Also, the “Ki (CTX-M-14, NCF)” value in assay [7] is recorded as “X (Less than 0.1 μM)”.

As for `O=C(O)c1c(F)ccc2c1OB(O)[C@@H](SC1CNC1)C2` [Compound 46, (R)-3-(azetidin-3-ylthio)-7-fluoro-2-hydroxy-3,4-dihydro-2H-benzo[e][1,2]oxaborinine-8-carboxylic acid], the Ki at NDM-1 [1] is more than 100 nM; at NDM-1 [2], more than 100 nM; in assay [4], less than 100 nM; in assay [5], 100 to 1000 nM; in assay [6], less than 100 nM. This molecule showed an IC50 against VIM-1 not below 1000 nM. In assay [3], the “Ki (P99/AmpC of ECL, NCF)” value is reported as “Z (Greater than 1 μM)”. Moreover, in assay [7], the “Ki (CTX-M-14, NCF)” value is given as “X (Less than 0.1 μM)”.

As for `COc1ccc2c(c1C(=O)O)OB(O)[C@@H](Sc1nccs1)C2` [Compound 47, (R)-2-hydroxy-7-methoxy-3-(thiazol-2-ylthio)-3,4-dihydro-2H-benzo[e][1,2]oxaborinine-8-carboxylic acid], the Ki is 10 to 100 nM at NDM-1 [1]; more than 100 nM on NDM-1 [2]; less than 100 nM in assay [4]; 100 to 1000 nM in assay [5]; less than 100 nM in assay [6]. The molecule further showed an IC50 at VIM-1 of less than 1000 nM. The “Ki (P99/AmpC of ECL, NCF)” value in assay [3] is given as “Y (0.1 μM to 1 μM)”. Also, the “Ki (CTX-M-14, NCF)” value in assay [7] is on record as “X (Less than 0.1 μM)”.

On to `O=C(O)c1c(F)ccc2c1OB(O)[C@@H](Sc1cnns1)C2` [Compound 48, (3R)-7-fluoro-2-hydroxy-3-(thiadiazol-5-ylsulfanyl)-3,4-dihydro-1,2-benzoxaborinine-8-carboxylic acid], for which the Ki at NDM-1 [1] was more than 100 nM; on NDM-1 [2], more than 100 nM; in assay [4], less than 100 nM; in assay [5], 100 to 1000 nM; in assay [6] it was less than 100 nM. In addition, the IC50 against VIM-1 is not below 1000 nM. Further, the “Ki (P99/AmpC of ECL, NCF)” value in assay [3] is on record as “Z (Greater than 1 μM)”. In addition, the “Ki (CTX-M-14, NCF)” value in assay [7] is recorded as “X (Less than 0.1 μM)”.

In the case of `NC(=O)CS[C@H]1Cc2ccc(F)c(C(=O)O)c2OB1O` [Compound 49, (3R)-3-(2-amino-2-oxo-ethyl)sulfanyl-7-fluoro-2-hydroxy-3,4-dihydro-1,2-benzoxaborinine-8-carboxylic acid], the Ki was more than 100 nM on NDM-1 [1]; more than 100 nM on NDM-1 [2]; less than 100 nM in assay [4]; less than 100 nM in assay [5]; less than 100 nM in assay [6]. Besides, at VIM-1, the IC50 was not below 1000 nM. The “Ki (P99/AmpC of ECL, NCF)” value in assay [3] was “Y (0.1 μM to 1 μM)”. Besides, in assay [7], the “Ki (CTX-M-14, NCF)” value is recorded as “X (Less than 0.1 μM)”.

Consider `Nc1nnc(CCS[C@H]2Cc3ccc(F)c(C(=O)O)c3OB2O)s1` [Compound 50, (3R)-3-[2-(5-amino-1,3,4-thiadiazol-2-yl)ethylsulfanyl]-7-fluoro-2-hydroxy-3,4-dihydro-1,2-benzoxaborinine-8-carboxylic acid], for which the Ki at NDM-1 [1] was more than 100 nM; on NDM-1 [2] it was more than 100 nM; in assay [4], less than 100 nM; in assay [5] it was less than 100 nM; in assay [6], less than 100 nM. Further, the IC50 against VIM-1 was less than 1000 nM. The “Ki (P99/AmpC of ECL, NCF)” value in assay [3] was “X (Less than 0.1 μM)”. In addition, the “Ki (CTX-M-14, NCF)” value in assay [7] is on record as “X (Less than 0.1 μM)”.

`N#CCS[C@H]1Cc2ccc(F)c(C(=O)O)c2OB1O` [Compound 51, (3R)-3-(cyanomethylsulfanyl)-7-fluoro-2-hydroxy-3,4-dihydro-1,2-benzoxaborinine-8-carboxylic acid]: the Ki on NDM-1 [1] is more than 100 nM; on NDM-1 [2], more than 100 nM; in assay [4], less than 100 nM; in assay [5] it was less than 100 nM; in assay [6] it was less than 100 nM. The molecule further registered an IC50 against VIM-1 not below 1000 nM. For the same molecule, the “Ki (P99/AmpC of ECL, NCF)” value in assay [3] is reported as “Z (Greater than 1 μM)”. The “Ki (CTX-M-14, NCF)” value in assay [7] was “X (Less than 0.1 μM)”.

As to `Nc1ncc(S[C@H]2Cc3ccc(F)c(C(=O)O)c3OB2O)s1` [Compound 52, (3R)-3-(2-aminothiazol-5-yl)sulfanyl-7-fluoro-2-hydroxy-3,4-dihydro-1,2-benzoxaborinine-8-carboxylic acid], the Ki at NDM-1 [1] is more than 100 nM; on NDM-1 [2] it was more than 100 nM; in assay [4], less than 100 nM; in assay [5] it was less than 100 nM; in assay [6], less than 100 nM. This molecule also returned an IC50 against VIM-1 of less than 1000 nM. Further, in assay [3], the “Ki (P99/AmpC of ECL, NCF)” value is listed as “Y (0.1 μM to 1 μM)”. Besides, in assay [7], the “Ki (CTX-M-14, NCF)” value is listed as “X (Less than 0.1 μM)”.
